For one experiment, the target named is mushroom tyrosinase. The experiment in a line: mushroom tyrosinase inhibitory activity. It counts as biochemical. Particulars: 400 U/ml mushroom tyrosinase, 3.53 mM L-tyrosine substrate, absorbance 492 nm at 10th minute. As to the method: The mushroom tyrosinase inhibitory activity of 3,5-dimethoxy-4′-hydroxystilbene was studied in a micro plate by incubating varying concentrations of the sample with 400 U/ml of mushroom tyrosinase and then by the addition of 3.53 mM of L-tyrosine substrate. The absorbance at the 10th minute of the reaction was read in a Fluostar Optima micro plate reader at 492 nm.

The test system of experiment [1] is B16F1 mouse melanoma cell line. The experiment in a line: melanogenesis inhibition in MSH-induced B16F1 mouse melanoma cell line. It counts as cell-based. The procedure: 3,5-dimethoxy-4′-hydroxystilbene was studied for melanogenesis inhibition in B16F1 mouse melanoma cell line. B16F1 cells were induced with 0.5 nM MSH (Melanocyte stimulating hormone) and then treated with varying concentrations of the sample. Sample treatment was given thrice after every 72 hrs. On the 9th day of treatment, the melanin from the cells was extracted with 1N NaOH and the absorbance was read at 405 nm in a Fluostar Optima micro plate reader.

For experiment [2], the system named is Swiss 3T3 mouse fibroblast cells. The experiment in a line: UV protection in Swiss 3T3 mouse fibroblast cells (SRB viability). The format is cell-based. The conditions noted are these: UV A (0.5 J/cm2) and UV B (0.05 J/cm2), 72 hours incubation, SRB staining. The procedure: 3,5-dimethoxy-4′-hydroxystilbene was studied for UV protection in Swiss 3T3 mouse fibroblast cells. Swiss 3T3 fibroblast cell monolayers were exposed to UV A (0.5 J/cm2) and UV B (0.05 J/cm2) in the presence and absence of sample treatment at varying concentrations. After UV exposure, the cells were incubated in CO2 incubator for 72 hours and the cell viability was determined by SRB (Sulphorhodomine B) dye staining. The UV protection is determined as the enhanced percentage of viable sample treated cells as compared to the untreated cells after UV exposure.

The source of these data is patent US20100240767A1, “Melanogenesis inhibitiuon by 3,5-dimethoxy-4'-hydroxystilbenes and cosmeceutical compositions thereof” (priority 2009, published 2010).

≈ marks a conversion by molar mass, not a printed value.

For the compound `COc1cc(/C=C/c2ccc(O)cc2)cc(OC)c1` [3,5-dimethoxy-4′-hydroxystilbene], at mushroom tyrosinase, the “inhibition of mushroom tyrosinase IC50” value was determined as 7 µg/mL. In experiment [1] (Mus musculus, B16-F1, B16F1 cells induced with 0.5 nM MSH, treated thrice every 72 hrs, melanin read at 405 nm on 9th day), this compound came in with an IC50 of 0.5 µg/mL (≈ 1.95 µM). Moreover, the “melanogenesis inhibition potential relative to Glabridin” value in experiment [1] (times higher potential than Glabridin, B16F1 cells) is listed as “about 6 times”. Besides, in experiment [2], the “UV protection (enhanced percentage of viable treated cells as compared to the untreated cells after UV exposure)” value is recorded as 32%.
